Here are results for one sequence from patent US10363288B2, “Insulin mimotopes and methods of using the same” (THE REGENTS OF THE UNIVERSITY OF COLORADO, a body corporate, priority 2015, dated 2019).

Assay [1] concerns CD4 T cells. The experiment in a line: CFSE proliferation assay of CD4 T cells from PBMCs of established T1D subjects. It is filed as cell-based, human.
Assay [2] deals with NOD mouse. To be noted: administered at low doses; cited from earlier work.

In the case of “SHLVEALYLVCGEEG [B: 9-23 B22E, B:9-23 mimotope; B22 arginine to glutamic acid]”, in assay [1], the “proliferation of CD4 T cells (CFSE dilution)” value was “proliferation of CD4 T cells much more than the wild type peptide”. Also, in assay [2], the “inducing tolerance and preventing diabetes onset” value is recorded as “completely preventing diabetes onset”.
